Source: patent US20020065219A1, “Water soluble thiazolyl peptide derivatives” (priority 2000, published 2002)
In brackets after ≈: the same amount, converted by molar mass. Like-named read-outs stand apart in the source and are kept apart here.

Legend:
Assay in all cases: MIC, broth micro dilution assay (NCCLS)
Assay type in all cases: cell-based
[1] = tested on: Staphylococcus aureus A15090; conditions: for MIC: Staphylococcus aureus, A15090, 18 h, read-out: MIC (μg/mL) against Staphylococcus aureus A15090
[2] = tested on: Enterococcus faecalis A20688; conditions: for MIC: Enterococcus faecalis, A20688, 18 h, read-out: MIC (μg/mL) against Enterococcus faecalis A20688
[3] = tested on: Streptococcus pneumoniae A28272; conditions: for MIC: Streptococcus pneumoniae, A28272, 18 h, read-out: MIC (μg/mL) against Streptococcus pneumoniae A28272
[4] = Mueller-Hinton medium, 35° C., 18 hours
[5] = 50% Mueller-Hinton medium and 50% Todd Hewitt medium, 35° C., 18 hours

SMILES: CO/C(C)=C1/NC(=O)C(C(C)O)NC(=O)c2csc(n2)-c2cc(O)c(-c3nc(C(=O)NC(CN4CCCC4)C(N)=O)cs3)nc2-c2csc(n2)C2COC(=O)c3c4c5c(cccc5n3O)COC(=O)C(O[C@H]3C[C@](C)(O)[C@H](N(C)C)[C@H](C)O3)C(OC4)C(NC(=O)c3csc1n3)c1nc(cs1)C(=O)N2 (stereo partly drawn) [Example 15]
- MIC (μg/mL) against Staphylococcus aureus A15090 [1]: 0.06 µg/mL (≈ 0.0398 µM)
- MIC (μg/mL) against Enterococcus faecalis A20688 [2]: 0.5 µg/mL (≈ 0.331 µM)
- MIC (μg/mL) against Streptococcus pneumoniae A28272 [3]: 0.015 µg/mL (≈ 0.00994 µM)

SMILES: CO/C(C)=C1/NC(=O)C(C(C)O)NC(=O)c2csc(n2)-c2cc(O)c(-c3nc(C(=O)NC(CNCCOCCOCCOCCN)C(N)=O)cs3)nc2-c2csc(n2)C2COC(=O)c3c4c5c(cccc5n3O)COC(=O)C(O[C@H]3C[C@](C)(O)[C@H](N(C)C)[C@H](C)O3)C(OC4)C(NC(=O)c3csc1n3)c1nc(cs1)C(=O)N2 (stereo partly drawn) [Example 58]
- MIC (μg/mL) against Staphylococcus aureus A15090 [1]: 1.0 µg/mL (≈ 0.614 µM)
- MIC (μg/mL) against Enterococcus faecalis A20688 [2]: 1.0 µg/mL (≈ 0.614 µM)
- MIC (μg/mL) against Streptococcus pneumoniae A28272 [3]: 0.25 µg/mL (≈ 0.153 µM)

SMILES: CCOC(=O)CN1CCN(CC(NC(=O)c2csc(-c3nc4c(cc3O)-c3nc(cs3)C(=O)NC(C(C)O)C(=O)N/C(=C(\C)OC)c3nc(cs3)C(=O)NC3c5nc(cs5)C(=O)NC(COC(=O)c5c6c7c(cccc7n5O)COC(=O)C(O[C@H]5C[C@](C)(O)[C@H](N(C)C)[C@H](C)O5)C3OC6)c3nc-4cs3)n2)C(N)=O)CC1 (stereo partly drawn) [Example 36]
- MIC (μg/mL) against Staphylococcus aureus A15090 [1, 4]: 0.06 µg/mL (≈ 0.0373 µM)
- MIC (μg/mL) against Enterococcus faecalis A20688 [2, 4]: 0.25 µg/mL (≈ 0.155 µM)
- MIC (μg/mL) against Streptococcus pneumoniae A28272 [3, 5]: 0.007 µg/mL (≈ 0.00435 µM)

SMILES: COC(C)=C1NC(=O)C(C(C)O)NC(=O)c2csc(n2)-c2cc(O)c(-c3nc(C(=O)NC(CN4CC5CC4CN5C)C(N)=O)cs3)nc2-c2csc(n2)C2COC(=O)c3c4c5c(cccc5n3O)COC(=O)C(OC3CC(C)(O)C(N(C)C)C(C)O3)C(OC4)C(NC(=O)c3csc1n3)c1nc(cs1)C(=O)N2 (stereo not drawn) [Example 73]
- MIC (μg/mL) against Staphylococcus aureus A15090 [1]: 0.25 µg/mL (≈ 0.161 µM)
- MIC (μg/mL) against Enterococcus faecalis A20688 [2]: 2.0 µg/mL (≈ 1.29 µM)
- MIC (μg/mL) against Streptococcus pneumoniae A28272 [3]: 0.015 µg/mL (≈ 0.00968 µM)

SMILES: CO/C(C)=C1/NC(=O)C(C(C)O)NC(=O)c2csc(n2)-c2cc(O)c(-c3nc(C(=O)NC(CN(C)CCc4ccccn4)C(N)=O)cs3)nc2-c2csc(n2)C2COC(=O)c3c4c5c(cccc5n3O)COC(=O)C(O[C@H]3C[C@](C)(O)[C@H](N(C)C)[C@H](C)O3)C(OC4)C(NC(=O)c3csc1n3)c1nc(cs1)C(=O)N2 (stereo partly drawn) [Example 20]
- MIC (μg/mL) against Staphylococcus aureus A15090 [1, 4]: 0.125 µg/mL (≈ 0.0794 µM)
- MIC (μg/mL) against Enterococcus faecalis A20688 [2, 4]: 0.25 µg/mL (≈ 0.159 µM)
- MIC (μg/mL) against Streptococcus pneumoniae A28272 [3, 5]: 0.005 µg/mL (≈ 0.00318 µM)

SMILES: CO/C(C)=C1/NC(=O)C(C(C)O)NC(=O)c2csc(n2)-c2cc(O)c(-c3nc(C(=O)NC(CNCCNC(C)=O)C(N)=O)cs3)nc2-c2csc(n2)C2COC(=O)c3c4c5c(cccc5n3O)COC(=O)C(O[C@H]3C[C@](C)(O)[C@H](N(C)C)[C@H](C)O3)C(OC4)C(NC(=O)c3csc1n3)c1nc(cs1)C(=O)N2 (stereo partly drawn) [Example 16]
- MIC (μg/mL) against Staphylococcus aureus A15090 [1, 4]: 1.0 µg/mL (≈ 0.649 µM)
- MIC (μg/mL) against Enterococcus faecalis A20688 [2, 4]: 4.0 µg/mL (≈ 2.6 µM)
- MIC (μg/mL) against Streptococcus pneumoniae A28272 [3, 5]: 0.125 µg/mL (≈ 0.0812 µM)

SMILES: COC(C)=C1NC(=O)C(C(C)O)NC(=O)c2csc(n2)-c2cc(O)c(-c3nc(C(=O)NC(CN(C)CCC(=O)Nc4ccncc4)C(N)=O)cs3)nc2-c2csc(n2)C2COC(=O)c3c4c5c(cccc5n3O)COC(=O)C(OC3CC(C)(O)C(N(C)C)C(C)O3)C(OC4)C(NC(=O)c3csc1n3)c1nc(cs1)C(=O)N2 (stereo not drawn) [Example 82]
- MIC (μg/mL) against Staphylococcus aureus A15090 [1, 4]: 0.5 µg/mL (≈ 0.309 µM)
- MIC (μg/mL) against Enterococcus faecalis A20688 [2, 4]: 0.5 µg/mL (≈ 0.309 µM)
- MIC (μg/mL) against Streptococcus pneumoniae A28272 [3, 5]: 0.03 µg/mL (≈ 0.0186 µM)

SMILES: C/C=C1\NC(=O)C(C(C)O)NC(=O)c2csc(n2)-c2cc(O)c(-c3nc(C(=O)NC(CSCCN(CC)CC)C(N)=O)cs3)nc2-c2csc(n2)C2CSC(=O)c3[nH]c4cccc(c4c3C)COC(=O)C(O)CC(NC(=O)c3csc1n3)c1nc(cs1)C(=O)N2 (stereo not drawn) [Example 102]
- MIC [1]: 0.125 µg/mL (≈ 0.0922 µM)
- MIC [2]: 0.25 µg/mL (≈ 0.184 µM)
- MIC [3]: 0.03 µg/mL (≈ 0.0221 µM)

SMILES: COCCOCCOCCOCCN1CCN(CC(NC(=O)c2csc(-c3nc4c(cc3O)-c3nc(cs3)C(=O)NC(C(C)O)C(=O)N/C(=C(\C)OC)c3nc(cs3)C(=O)NC3c5nc(cs5)C(=O)NC(COC(=O)c5c6c7c(cccc7n5O)COC(=O)C(O[C@H]5C[C@](C)(O)[C@H](N(C)C)[C@H](C)O5)C3OC6)c3nc-4cs3)n2)C(N)=O)CC1 (stereo partly drawn) [Example 69]
- MIC (μg/mL) against Staphylococcus aureus A15090 [1]: 0.5 µg/mL (≈ 0.292 µM)
- MIC (μg/mL) against Enterococcus faecalis A20688 [2]: 4.0 µg/mL (≈ 2.33 µM)
- MIC (μg/mL) against Streptococcus pneumoniae A28272 [3]: 0.25 µg/mL (≈ 0.146 µM)

SMILES: CNC(=O)N(CCN(C)C)CC(NC(=O)c1csc(-c2nc3c(cc2O)-c2nc(cs2)C(=O)NC(C(C)O)C(=O)N/C(=C(\C)OC)c2nc(cs2)C(=O)NC2c4nc(cs4)C(=O)NC(COC(=O)c4c5c6c(cccc6n4O)COC(=O)C(OC4CC(C)(O)C(N(C)C)C(C)O4)C2OC5)c2nc-3cs2)n1)C(N)=O (stereo not drawn) [Example 110]
- MIC (μg/mL) against Staphylococcus aureus A15090 [1]: 0.5 µg/mL (≈ 0.316 µM)
- MIC (μg/mL) against Enterococcus faecalis A20688 [2]: 2.0 µg/mL (≈ 1.26 µM)
- MIC (μg/mL) against Streptococcus pneumoniae A28272 [3]: 0.03 µg/mL (≈ 0.019 µM)

SMILES: CCN(CC)CCS(=O)(=O)CC(NC(=O)c1csc(-c2nc3c(cc2O)-c2nc(cs2)C(=O)NC(C(C)O)C(=O)N/C(=C(\C)OC)c2nc(cs2)C(=O)NC2c4nc(cs4)C(=O)NC(COC(=O)c4c5c6c(cccc6n4O)COC(=O)C(O[C@H]4C[C@](C)(O)C(N(C)C)[C@H](C)O4)C2OC5)c2nc-3cs2)n1)C(N)=O (stereo partly drawn) [Example 103]
- MIC [1]: 0.06 µg/mL (≈ 0.0374 µM)
- MIC [2]: 0.03 µg/mL (≈ 0.0187 µM)
- MIC [3]: 0.007 µg/mL (≈ 0.00437 µM)

SMILES: CO/C(C)=C1/NC(=O)C(C(C)O)NC(=O)c2csc(n2)-c2cc(O)c(-c3nc(C(=O)NC(CN(CCCN(C)C)CCCN(C)C)C(N)=O)cs3)nc2-c2csc(n2)C2COC(=O)c3c4c5c(cccc5n3O)COC(=O)C(O[C@H]3C[C@](C)(O)[C@H](N(C)C)[C@H](C)O3)C(OC4)C(NC(=O)c3csc1n3)c1nc(cs1)C(=O)N2 (stereo partly drawn) [Example 27]
- MIC (μg/mL) against Staphylococcus aureus A15090 [1, 4]: 4.0 µg/mL (≈ 2.46 µM)
- MIC (μg/mL) against Enterococcus faecalis A20688 [2, 4]: 2.0 µg/mL (≈ 1.23 µM)
- MIC (μg/mL) against Streptococcus pneumoniae A28272 [3, 5]: 0.0005 µg/mL (≈ 0.000308 µM)

SMILES: COC(C)=C1NC(=O)C(C(C)O)NC(=O)c2csc(n2)-c2cc(O)c(-c3nc(C(=O)NC(CN4CCN(Cc5cc(OC)c(OC)c(OC)c5)CC4)C(N)=O)cs3)nc2-c2csc(n2)C2COC(=O)c3c4c5c(cccc5n3O)COC(=O)C(OC3CC(C)(O)C(N(C)C)C(C)O3)C(OC4)C(NC(=O)c3csc1n3)c1nc(cs1)C(=O)N2 (stereo not drawn) [Example 71]
- MIC (μg/mL) against Staphylococcus aureus A15090 [1]: 1.0 µg/mL (≈ 0.587 µM)
- MIC (μg/mL) against Enterococcus faecalis A20688 [2]: 2.0 µg/mL (≈ 1.17 µM)
- MIC (μg/mL) against Streptococcus pneumoniae A28272 [3]: 0.5 µg/mL (≈ 0.293 µM)

SMILES: COC(C)=C1NC(=O)C(C(C)O)NC(=O)c2csc(n2)-c2cc(O)c(-c3nc(C(=O)NC(CN(C)CCCn4ccnc4)C(N)=O)cs3)nc2-c2csc(n2)C2COC(=O)c3c4c5c(cccc5n3O)COC(=O)C(O)C(OC4)C(NC(=O)c3csc1n3)c1nc(cs1)C(=O)N2 (stereo not drawn) [Example 97]
- MIC (μg/mL) against Staphylococcus aureus A15090 [1, 4]: 0.125 µg/mL (≈ 0.0889 µM)
- MIC (μg/mL) against Enterococcus faecalis A20688 [2, 4]: 0.25 µg/mL (≈ 0.178 µM)
- MIC (μg/mL) against Streptococcus pneumoniae A28272 [3, 5]: 0.125 µg/mL (≈ 0.0889 µM)

SMILES: COC(C)=C1NC(=O)C(C(C)O)NC(=O)c2csc(n2)-c2cc(O)c(-c3nc(C(=O)NC(CN4CCCC4C(O)c4nccn4C)C(N)=O)cs3)nc2-c2csc(n2)C2COC(=O)c3c4c5c(cccc5n3O)COC(=O)C(OC3CC(C)(O)C(N(C)C)C(C)O3)C(OC4)C(NC(=O)c3csc1n3)c1nc(cs1)C(=O)N2 (stereo not drawn) [Example 91]
- MIC (μg/mL) against Staphylococcus aureus A15090 [1, 4]: 0.03 µg/mL (≈ 0.0185 µM)
- MIC (μg/mL) against Enterococcus faecalis A20688 [2, 4]: 0.06 µg/mL (≈ 0.0371 µM)
- MIC (μg/mL) against Streptococcus pneumoniae A28272 [3, 5]: 0.015 µg/mL (≈ 0.00927 µM)
